Measured values taken from patent US4983328A, “N-(4-(3-aminopropyl)aminobutyl)-2-(ω-gua nidino-fatty-acid-amido(-2-substituted-ethanamide, salt thereof, and process for preparation thereof” (Bristol-Myers Company, priority 1981, dated 1991).
Converted amounts (≈) assume the structure as drawn.

What was measured:
[1] = cumulative toxicity in mice (maximum tolerated dose, once a day for 6 consecutive days); details: mouse, in vivo, ip, i.p. once a day for 6 consecutive days, total dose, read-out: Maximum Tolerated Dose (total dose not causing death)
Experimental: (§1) In Table 8 median lethal doses (LD50) of typical compounds of this invention are shown, measured in mice upon single intraperitoneal administration, as well as maximum tolerated doses in terms of total dose when a fixed amount per unit body weight was administered intraperitoneally to mice once a day for 6 consecutive days.
**Maximum value of the total dose not causing death when a fixed amount
per unit body weight is administered to mice once a day for 6 consecutive

[2] = test system: mouse leukemia L-1210 cells; assay: growth inhibitory activity to cancer cells in vitro (L-1210, 48 hours); format: cell-based; details: for inhibition at 5 µg/mL: L1210, 5 mcg/ml; for inhibition at 10 µg/mL: L1210, 10 mcg/ml; for inhibition at 20 µg/mL: L1210, 20 mcg/ml; for inhibition at 40 µg/mL: L1210, 40 mcg/ml; for IC50: L1210, L-1210 cells, read-out: 50% inhibitory concentration
Experimental: DBA/2 mice were implanted with 10^5 mouse leukemia L-1210 cells. The ascites collected asceptically from the mice after 4 days of feeding was washed three times with physiological saline to obtain L-1210 cells, which was then suspended in RPMI 1640 culture medium [G. E. Moore, Journal of the American Medical Association, Vol. 199, 519 (1967); H. J. Morton, In Vitro, Vol. 6, 89 (1970)] to which 10% fetal calf serum and 5 μM 2-mercaptoethanol had been added, and the resulting suspension was diluted to 5×10^4 L-1210 cells per 0.9 ml. A microplate carrying 0.9 ml of the cell suspension and 0.1 ml of the culture medium containing the sample being tested was kept in a carbon dioxide incubator at 37° C. After 48 hours of cultivation, the number of cells was measured by means of a Coulter Counter (Coulter Electronics, Inc., U.S.A.) to obtain the growth inhibition (%)=(1--T/C )×100=[1-(number of grown cells in medium containing sample/(number of grown cells in control medium)]×100. The 50% growth inhibitory concentration was calculated from the values of growth inhibition at varied sample concentrations. The results of tests on typical compounds of this invention for the growth inhibition of L-1210 cells were as shown in Table 6.

mouse leukemia L-1210 = assay: therapeutic effect on implanted cancer in mice (L-1210, survival over 30 days); format: in vivo, mouse (BDF1); details: L1210, ip, 720 h, 6 days; for responders at 1.56 mg/kg / response vs control in vivo at 1.56 mg/kg: 1.56 mg/kg/day i.p.; for responders at 3.13 mg/kg / response vs control in vivo at 3.13 mg/kg: 3.13 mg/kg/day i.p.; for responders at 6.25 mg/kg / response vs control in vivo at 6.25 mg/kg: 6.25 mg/kg/day i.p.; for responders at 12.5 mg/kg / response vs control in vivo at 12.5 mg/kg: 12.5 mg/kg/day i.p.
From the text: BDF1 strain male mice (5 weeks old) were each inoculated intraperitoneally with 10^5 mouse leukemia L-1210 cells and treated once a day by intraperitoneal injection with a test compound dissolved in physiological saline for 6 consecutive days beginning from the day of inoculation. The mice were then observed for 30 days to determine the rate of prolongation of survival period=100×T/C=100×(average survival days of treated group)/(average survival days of control group).

[3] = acute toxicity in mice (single intraperitoneal administration); details: mouse, in vivo, ip; mice, single i.p.; read-out: LD50 (median lethal dose on single administration)
Experimental: as §1
*Median lethal dose on single administration.

[4] = read-out: Growth inhibition (%), (1-T/C) × 100
[5] = read-out: Number of mice survived for 30 days (converted)
[6] = read-out: Prolongation of survival period (%), T/C × 100

SMILES	MTD [1] [mg/kg]	inhibition at 5 µg/mL [2, 4] [%]	inhibition at 10 µg/mL [2, 4] [%]	inhibition at 20 µg/mL [2, 4] [%]	inhibition at 40 µg/mL [2, 4] [%]	IC50 [2] [µg/mL]	responders at 1.56 mg/kg (mouse leukemia L-1210; [5]) [%]	response vs control in vivo at 1.56 mg/kg (mouse leukemia L-1210; [6]) [%]	responders at 3.13 mg/kg (mouse leukemia L-1210; [5]) [%]	response vs control in vivo at 3.13 mg/kg (mouse leukemia L-1210; [6]) [%]	responders at 6.25 mg/kg (mouse leukemia L-1210; [5]) [%]	response vs control in vivo at 6.25 mg/kg (mouse leukemia L-1210; [6]) [%]	responders at 12.5 mg/kg (mouse leukemia L-1210; [5]) [%]	response vs control in vivo at 12.5 mg/kg (mouse leukemia L-1210; [6]) [%]	LD50 [3] [mg/kg]	other results
N=C(N)NCCCCCCC=CC(=O)NC(O)C(=O)NCCCCNCCCN (centres unmarked) [Compound 18, N-[4-(3-aminopropyl)aminobutyl]-2-(9-guanidino-2-nonenamido)-2-hydroxyethanamide]	> 37.5	15.7	20.9	29.5	32.3	90 (≈ 218 µM)	75	> 429	100	> 429	50	> 350	0	0	6.25 to 12.5	inhibition at 80 µg/mL ([2]; L1210, 80 mcg/ml, read-out: Growth inhibition (%), (1-T/C) × 100): 47.8%; responders at 0.1 mg/kg (mouse leukemia L-1210; 0.10 mg/kg/day i.p., read-out: Number of mice survived for 30 days): 0%; response vs control in vivo at 0.1 mg/kg (mouse leukemia L-1210; 0.10 mg/kg/day i.p., read-out: Prolongation of survival period (%), T/C × 100): 129%; responders at 0.2 mg/kg (mouse leukemia L-1210; 0.20 mg/kg/day i.p., read-out: Number of mice survived for 30 days (converted)): 0%; response vs control in vivo at 0.2 mg/kg (mouse leukemia L-1210; 0.20 mg/kg/day i.p., read-out: Prolongation of survival period (%), T/C × 100): 136%; responders at 0.39 mg/kg (mouse leukemia L-1210; 0.39 mg/kg/day i.p., read-out: Number of mice survived for 30 days (converted)): 0%; response vs control in vivo at 0.39 mg/kg (mouse leukemia L-1210; 0.39 mg/kg/day i.p., read-out: Prolongation of survival period (%), T/C × 100): 157%; responders at 0.78 mg/kg (mouse leukemia L-1210; 0.78 mg/kg/day i.p., read-out: Number of mice survived for 30 days (converted)): 0%; response vs control in vivo at 0.78 mg/kg (mouse leukemia L-1210; 0.78 mg/kg/day i.p., read-out: Prolongation of survival period (%), T/C × 100): 200%
COC(NC(=O)C[C@@H](O)CCCCNC(=N)N)C(=O)NCCCCNCCCN (some centres unmarked) [Compound 22, N-[4-(3-aminopropyl)aminobutyl]-2-(7-guanidino-3-hydroxyheptanamido)-2-methoxyethanamide]	> 150	82.6	94.5	96.9	98.3	1.8 (≈ 4.31 µM)	0	117	0	163	50	> 332	62.5	> 380	25 to 50	inhibition at 2.5 µg/mL ([2]; L1210, 2.5 mcg/ml, read-out: Growth inhibition (%), (1-T/C) × 100): 60.8%; responders at 25 mg/kg (mouse leukemia L-1210; 25 mg/kg/day i.p., read-out: Number of mice survived for 30 days (converted)): 75%; response vs control in vivo at 25 mg/kg (mouse leukemia L-1210; 25 mg/kg/day i.p., read-out: Prolongation of survival period (%), T/C × 100): > 414%; responders at 50 mg/kg (mouse leukemia L-1210; 50 mg/kg/day i.p., read-out: Number of mice survived for 30 days (converted)): 0%; response vs control in vivo at 50 mg/kg (mouse leukemia L-1210; 50 mg/kg/day i.p., read-out: Prolongation of survival period (%), T/C × 100): 7%
